Experimental data reported in article PMC5515844, “A new Prenylated Flavonoid induces G0/G1 arrest and apoptosis through p38/JNK MAPK pathways in Human Hepatocellular Carcinoma cells” (Scientific Reports, 2017).

Legend:
[1] = system: Hep3B xenografts; experiment: In vivo antitumor activity, nude mouse xenograft model; design: species or system BALB/c nude mice; conditions: for inhibition rate of the tumor volume: vs vehicle group
Procedure: (§1) All of the animal studies and procedures were conducted in accordance with the approval and guidelines of the Shenyang Pharmaceutical University Institutional Animal Care and Use Committee (permission number: SCXK (Jing) 2014-0004). Male BALB/c nude mice at the age of six weeks were obtained from Beijing HFK Bioscience Co., Ltd (Beijing, China). Hep3B cells (1 × 10^5 cells) were implanted subcutaneously into the right backsides of each nude mouse. After 12 days, when the tumor size reached about 100 mm^3, the mice were randomly divided into three groups (n = 6) and intraperitoneally injected with vehicle control or daphnegiravone D (5 and 10 mg/kg body weight) every two days for two weeks. The body weight and tumor sizes were measured every day, and the tumor volume was determined by caliper measurements and calculated by the formula: 0.5236 × L × W ^2, where L is the long axis and W is the short axis of the tumor. The experiment was terminated when the tumors volume of the control group reached about 3000 mm^3. The mice were sacrificed, and the tumors, hearts, livers, spleens, lungs and kidneys were excised immediately to evaluate the antitumor activity and toxicity of daphnegiravone D.
Mouse major organs (heart, liver, spleen, lung, kidney) and tumors were isolated and fixed in 10% buffered formalin for 3 days and embedded in paraffin. The tissues were sectioned at a thickness of 4 μm, and the obtained organ sections were prepared orderly by dewaxing, staining in hematoxylin and eosin-phloxine solution, then dehydrated and mounted with neutral resin. Subsequently, the tumor paraffin sections were deparaffinized, rehydrated, and subjected to antigen retrieval. Immunostaining was performed by the streptavidin-peroxidase (S-P) method (Ultra-sensitive; MaiXin, Fuzhou, China). The primary antibody was mouse anti-Ki67 monoclonal antibody (Maixin Biotech, Fuzhou, China). The peroxidase reaction was developed with 3,3-diaminobenzidine (Maixin Biotech, Fuzhou, China). Finally, the sections tissue morphology were observed using an OLYMPUS microscope.

[2] = Gross evaluation and pathological study in xenograft nude mice; assay type: in vivo, BALB/c nude mice
Procedure: as §1
Mouse major organs (heart, liver, spleen, lung, kidney) and tumors were isolated and fixed in 10% buffered formalin for 3 days and embedded in paraffin. […]

[3] = system: HepG2 cells; experiment: Annexin V-FITC/PI apoptosis detection; assay type: cell-based, human; conditions: HepG2, 2.5–10.0 μM, 48 h, dose-dependent
Procedure: (§2) An annexin-V FITC apoptosis detection Kit was used to determine the apoptosis effect induced by daphnegiravone D according to the manufacturer’s instructions (BD Biosciences, CA, USA). Briefly, Hep3B and HepG2 cells were plated in 6-well plates (2 × 10^5/well) and incubated overnight. Cells were harvested and washed with PBS by centrifugation after treatment with different concentrations of daphnegiravone D for 48 h. Then, cells were resuspended in 500 μL binding buffer and staining with Annexin V-FITC (10 μL) and propidium iodide (5 μL) at room temperature in the dark for 10 min. Thereafter, cells were analyzed by flow cytometry within 1 h after staining. 10,000 cells were acquired for each sample and data were analyzed by Cell Quest Pro software (BD Biosciences, New Jersey, USA).

[4] = system: Hep3B cells; experiment: Annexin V-FITC/PI apoptosis detection; assay type: cell-based, human; conditions: 0.5–2.0 μM, 48 h, dose-dependent
Procedure: as §2

[5] = system: HepG2 cells; experiment: Clonogenic assay; assay type: cell-based, human; conditions: HepG2, two weeks, dose-dependent
Procedure: (§3) The clonogenic assay was performed to appraise the effect of daphnegiravone D on cell proliferation. Hep3B (800 cells/well) or HepG2 (4,000 cells/well) cells were seeded in 6-well plates in 2 mL complete media overnight and attachment cells were incubated with various concentrations of daphnegiravone D for two weeks. Then, cells were washed twice with PBS carefully and fixed with 4.0% paraformaldehyde for 30 min, and stained with 0.5% crystal violet at room temperature for 30 min. Colonies containing exceeding 50 cells/colony were counted under microscope. All experiments were independently performed three times.

[6] = system: Hep3B cells; experiment: Clonogenic assay; assay type: cell-based, human; conditions: two weeks, dose-dependent
Procedure: as §3

[7] = 5 and 10 mg/kg i.p. every two days for two weeks

COc1c(-c2ccc(O)c(CC=C(C)C)c2)oc2c(CC=C(C)C)c(O)cc(O)c2c1=O [Compound 1, daphnegiravone D]
inhibition rate of the tumor volume ([1]; 5 mg/kg i.p. every two days for two weeks): approximately 35.9% | inhibition rate of the tumor volume ([1]; 10 mg/kg i.p. every two days for two weeks): ~50.3% | tumor volume and tumor weight [1, 7]: markedly decreased | Ki-67 labeling index (proliferation capacity of tumor) ([1]; immunohistochemistry, vs vehicle control): lower proliferation capacity | histopathology of heart, liver, spleen, lungs and kidneys ([2]; 5 mg/kg and 10 mg/kg, H&E, vs vehicle control group): no obvious differences | body weight of the mice [2, 7]: did not affect the body weight | AV+PI− and AV+PI+ cells (apoptosis) [3]: increased dramatically | AV+PI− and AV+PI+ cells (apoptosis) [4]: increased dramatically | colonies [5]: dramatically reduced | colonies [6]: dramatically reduced
